Laboratory results reported in US4220647A, “1,2,3,4-Tetrahydroisoquinolines and the preparation thereof” (Fujisawa Pharmaceutical Co., Ltd., priority 1974, dated 1980).

Test system: Intestinal motility in dogs (jejunum)
Experiment: Intestinal motility in dogs (inhibition of jejunal motility, balloon method)
Type: in vivo, dog (mongrel)
Details: Canis lupus familiaris; mongrel dogs 8 to 16 kg, urethane (1.5 g/kg) and morphine (15 mg/kg) anesthesia; balloon at jejunum, 10 cm H2O; maximum change in motility amplitude; route not given; read-out: 50% inhibition dose (ED50)
Experimental: Intestinal motility in dogs: Method: Mongrel dogs weighing 8 to 16 kg which were withheld from any food and water for 24 hours were anesthetized with a combination of urethane (1.5 g/kg) and morphine (15 mg/kg). A balloon was placed at the jejunum of the dog, compressed at a pressure of 10 cm. H2 O and connected to a strain gauge. Changes in the motility were principally recorded in terms of the amplitude of the movements, but the number of movements occurring were also taken into account. The maximum change in all the determinations served as the basis for calculations of the 50% inhibition dose (ED50).

SMILES	ED50 [µg/kg]
Cl.Oc1cc2c(cc1O)C(CNc1ccc(Cl)cc1)NCC2 (stereo not drawn) [Compound No. 2, 1-(p-Chloroanilinomethyl)-6,7-dihydroxy-1,2,3,4-tetrahydroisoquinoline hydrochloride]	1.5
Oc1cc2c(cc1O)C(CNc1ccc(F)cc1)NCC2 (stereo not drawn) [Compound No. 1, 1-(p-Fluoroanilinomethyl)-6,7-dihydroxy-1,2,3,4-tetrahydroisoquinoline d-camphor-10-sulfonate]	3
Cl.Cl.Oc1ccc(NCC2NCCc3cc(O)c(O)cc32)cc1 (stereo not drawn) [Compound No. 3, 1-(p-Hydroxyanilinomethyl)-6,7-dihydroxy-1,2,3,4-tetrahydroisoquinoline dihydrochloride]	4
